Assay results reported in US4552882A, “7-(1-Pyrrolyl) derivatives of 1-ethyl-1,4-dihydro-4-oxoquinoline-3-carboxylic acids and 1-ethyl-1,4-dihydro-4-oxo-1,8-naphthyridine-3-carboxylic acids and their use as antimicrobial agents” (Provesan, SA, priority 1983, dated 1985).
Converted amounts (≈) assume the structure as drawn.

Assays:
Assay in all cases: MIC in vitro
Type in all cases: cell-based
[1] = system: Escherichia coli ATCC 10536; settings: ATCC10536, Dextrose agar, 37° C., 20 hours
Method: (§1) (G. L. Daquet and Y. A. Chabbect, Techniques en bacteriologie (Bacteriological techniques), vol. 3, Flammarion Medecine Sciences, Paris, 1972 and W. B. Hugo and A. D. Rusell, Pharmaceutical Microbiology, Blackwell Scientific Publications, London, (1977)). Antibiotic medium no. 1 (seed agar) (Oxoid CM 327) Tryptone-soya broth (Oxoid CM 129) Ringer's physiological solution 1/4 (oxoid BR 52) Dextrose agar (BBL-11165) 0.1 N NaOH "Escherichia coli" ATCC 10536 Each of the microorganisms is seeded by streaking in tubes of Antibiotic medium No. 1 (seed agar), which are then incubated at 37° C. for 20 hours. Using a culture loop, the cultures are then seeded in tryptone-soyabroth and incubated at 37° C. for 20 hours. The culture obtained is diluted to 1/4 with Ringer's physiological solution, so as to obtain a standardized suspension of 10^7 -10^9 cfu/ml for each organism. Starting from a solution of 1,000 μg/ml in 0.1 N NaOH, each product is diluted in Dextrose agar (previously melted and maintained at 50° C.), with successive dilutions so as to obtain the following concentrations: 64--32--16--8--4--2--1--0.5--0.25--0.125 μg of derivative/ml medium. For each product, the solution of each concentration is subsequently distributed into Petri dishes 10 cm in diameter, with 10 ml of medium per dish and the same number of dishes as microorganisms to be tested. As soon as the medium has cooled, the dishes are seeded with the inoculations using 0.4 ml of inoculation per dish. They are spread with a Driglasky loop and the supernatant is removed. The seeded dishes are incubated at 37° C. for 20 hours.

Escherichia coli R-1513 = settings: R1513, Dextrose agar, 37° C., 20 hours
Method: as §1, with “R-1513” for “ATCC 10536”

[2] = system: Proteus mirabilis ATCC 4675; settings: ATCC4675, Dextrose agar, 37° C., 20 hours
Method: as §1, with “"Proteus mirabilis"” for “"Escherichia coli"”, “4675” for “10536”

| SMILES | MIC [1] [µg/mL] | MIC (Escherichia coli R-1513) [µg/mL] | MIC [2] [µg/mL] |
| --- | --- | --- | --- |
| CCn1cc(C(=O)O)c(=O)c2ccc(-n3cccc3)cc21 [Example 1, 7-(1-pyrrolyl)-1-ethyl-1,4-dihydro-4-oxo-3-quinolinecarboxylic acid] | 4 (≈ 14.2 µM) | 16 (≈ 56.7 µM) | 16 (≈ 56.7 µM) |
| CCn1cc(C(=O)O)c(=O)c2cc(F)c(-n3cccc3)cc21 [Example 2, 6-fluoro-7-(1-pyrrolyl)-1-ethyl-1,4-dihydro-4-oxo-3-quinolinecarboxylic acid] | 1 (≈ 3.33 µM) | 4 (≈ 13.3 µM) | 4 (≈ 13.3 µM) |
| CCn1cc(C(=O)O)c(=O)c2ccc(-n3cccc3)nc21 [Example 3, 1-ethyl-1,4-dihydro-4-oxo-7-(1-pyrrolyl)-1,8-naphthyridine-3-carboxylic acid] | 8 (≈ 28.2 µM) | 16 (≈ 56.5 µM) | > 64 |
| CCn1cc(C(=O)O)c(=O)c2cc(F)c(-n3cccc3)nc21 [Example 4, 1-ethyl-1,4-dihydro-4-oxo-6-fluoro-7-(1-pyrrolyl)-1,8-naphthyridine-3-carboxylic acid] | 0.12 (≈ 0.398 µM) | 4 (≈ 13.3 µM) | 8 (≈ 26.6 µM) |
| CCn1cc(C(=O)O)c(=O)c2cnc(N3CCNCC3)nc21 [Pipemidic acid, reference compound] | 2 (≈ 6.59 µM) | 16 (≈ 52.7 µM) | 16 (≈ 52.7 µM) |
